Source: US20250257077A1, “BRIDGED BICYCLIC HETEROCYCLOALKYL PYRIDO-[3,4-d]PYRIDAZINE AMINE DERIVATIVES USEFUL AS NLRP3 INHIBITORS” (Ventus Therapeutics U.S., Inc., priority 2022, published 2025)
Converted amounts (≈) assume the structure as drawn. Where two headings read alike, the source gives them in different places.

Assays:
[1] = target: T1, human NLRP3 (Homo sapiens, UniProt Q96P20); experiment: Human Whole Blood (hWB) NLRP3 Assay; type: cell-based; details: LPS priming, ATP activation, IL-1β levels
T1 construct: Human whole blood is drawn from healthy volunteers after obtaining written informed consent; from tissue
Method: (ii) Human Whole Blood (hWB) NLRP3 Assay
Human whole blood is drawn from healthy volunteers after obtaining written informed consent. Heparin lithium coated tubes are used to collect blood from volunteers. Blood samples are distributed on 96 well plates using 90 μl per well. Priming is performed by adding 5 μl of LPS (026: B6; Sigma L-2654) at a final concentration of 1 μg/ml for 4.5 hours in a humidified incubator with 37° C. 5% CO2. Thirty minutes prior to NLRP3 activation, 5 μl of a 20× compound solution or vehicle (2% dimethylsulfoxide (DMSO)) is added to each well and plates were incubated on a shaker (450 rpm) in a humidified incubator with 37° C., 5% CO2. Activation is then performed by adding 3.3 μl of a 31× ATP solution per well. At the end of the 30 minutes stimulation, the plates are centrifuged (800 g, 10 min, room temperature) and the plasma from each well is frozen at −80° C. IL-1β levels in the supernatant were analyzed using a mesoscale discovery assay (MSD K151TUK) according to the manufacturers’ instructions.

[2] = Mouse Hepatocyte Stability Assay; type: in vitro ADME; details: mouse hepatocytes, 37° C.; read-out: Hep (mouse) (t½ min)
Method: (§1) (v) Mouse and Human Hepatocyte Stability Assays
(§2) A hepatocyte stability assay is a laboratory-based method used to determine the metabolic stability of a compound in hepatocytes (liver cells). This assay provides valuable information about how quickly a drug is metabolized in the liver and can be used to assess its potential effectiveness and safety in drug discovery.
(§3) In the assay, cither human or mouse hepatocytes are incubated with the test compound at a controlled temperature of 37° C., for different time periods (e.g., 5, 15, 30, 60, and 120 minutes). At each time point during the incubation, samples are taken, the reaction is terminated, and the amount of test compound remaining analyzed using LC-MS/MS to monitor the disappearance of the test compound over time (Gradient). […] See, e.g., Coe et al., Methods in Pharmacology & Toxicology (2008) 151.

[3] = Brain Levels (Kp and Kpu,u); type: in vivo, CDI mice; details: for Kp at 24 h: mice dosed at 20 mpk PO, whole brain AUC over 24 h divided by plasma AUC; for Kp: oral, 20 mpk
Method: (iv) Brain Levels (Kp and Kpu,u)—NLRP3
The in vivo total brain to plasma ratio was assessed in CDI mice after oral administration of the compound. Blood was collected at several timepoints up to 24 h, and transferred into plastic micro centrifuge tubes with EDTA-K2 as anticoagulant. Blood samples were centrifuged at 4000 g for 5 minutes at 4° C., to obtain plasma, then immediately frozen and stored at −75±15° C., prior to analysis. Animals were terminally anaesthetized with a rising concentration of CO2 gas at about 1 minute. At selected timepoints, whole brains were removed from the skull, rinsed in cold PBS to remove blood, dried with clean gauze, then frozen in liquid nitrogen and kept at −75±15° C. before analysis. At the time of analysis, brain samples were homogenized with PBS by tissue weight (g) to PBS volume (mL) ratio 1:3.
Plasma and brain drug levels were quantified by LC/MS/MS on an AB Sciex Triple Quad 5500+instrument, after separation on a HALO 160 A ES-C18, 2.7 μm 2.1×50 mm column. Quantitation was performed using a calibration curve prepared in blank plasma or blank brain homogenate. The software WinNonlin (Phoenix™) was used for pharmacokinetic analysis from the concentrations versus time data, including the AUCinf and AUClast. The Kp ratio (total brain concentration over total plasma concentration) was calculated as (AUCtot,br)/(AUCtot,pl).
The unbound brain exposure was assessed as Kpuu, which is the free brain/free plasma concentration ratio (Cu,bt/Cu,pl). The Cu,br/Cu,pl ratios were obtained from in vivo total brain to plasma ratios (Ctot,br/Ctot,pl) by using in vitro determined Fu,br and Fu,pl.
Plasma protein binding and brain homogenate protein binding were measured by equilibrium dialysis in a HTDialysis plate. The dialysis membranes were soaked in ultrapure water for 60 minutes to separate strips, then in 20% ethanol for 20 minutes, finally in dialysis buffer for 20 minutes. The dialysis set up was assembled according to the manufacturer's instruction. Each cell received 150 μL of plasma or brain homogenate spiked with 1 mM of compound, and dialyzed against an equal volume of dialysis buffer (PBS). The dialysis plate was sealed and incubated in an incubator at 37° C. with 5% CO2 at 100 rpm for 6 hours. At the end of incubation, compound concentration was measured in both chambers by LC-MS/MS on a Triple Quad™ 5500 from AB Inc after separation on a XSelect Hss T3.2.5μ (2.1×30 mm) column. Free fraction (Fu) was calculated as (Peak Area Ratio buffer chamber/Peak Area Ratio plasma chamber). Kpuu=(AUCtot,br×Fu,br)/([…])
The Kpu,u was then calculated upon correcting this kp value with mouse plasma protein binding and mouse brain homogenates binding.
A Kpu,u value >0.3 is considered brain penetrant, and a Kpu,u value ≤0.3 is not considered brain penetrant. When the Kpu,u value is not determined, the Kp value may be useful as a metric of potential brain penetrance if the Kp value is >0.3.

[4] = Human Hepatocyte Stability Assay; type: in vitro ADME; details: human hepatocytes, 37° C.; read-out: Hep (human) (t½ min)
Method: as §1, §2, §3

[5] = Solubility Protocol in Phosphate Buffered Saline (PBS); type: physicochemical; details: for solubility at 2 h: pH 7.4, aqueous buffer
Method: (vi) Solubility Protocol in Phosphate Buffered Saline (PBS)
The kinetic solubility of test compounds and control compounds was measured in commercial phosphate buffered saline (PBS), pH 7.4 (Wisent, Canada).
Briefly, a stock solution (20 mM DMSO for controls, and 10 mM DMSO for test compounds) was combined with PBS buffer to reach a targeted concentration of 400 μM for controls and 200 μM for test compounds. The spiked-PBS mixtures were then agitated on a VX-2500 multi-tube vortexer (VWR) for 2 hours at room temperature (18° C.). Following agitation, the samples were filtered on a glass fiber filter (1 μm) and the eluates were diluted 400-fold with a mixture of acetonitrile:water (1:1). Solubility determination was then performed against one standard sample prepared in high organic content at the expected top concentration. The lower limit of quantification was arbitrarily set at 1 μM (400-fold dilution of the top concentration) for assay controls, and 0.5 μM for test compounds. On each experimental run, nicardipine and imipramine were assessed as reference compounds for low and high solubility, respectively. All samples were assessed in triplicate and analyzed by LC-MS/MS (using a CTC PAL autosampler, Thermo Accela UPLC, and a Thermo Quantum mass spectrometer) using electrospray ionization against standards prepared in the same matrix

[6] = CDI, mouse, brain (whole brain homogenate) relative to plasma, po, 20 mg/kg
[7] = CDI, mouse, brain (whole brain homogenate) relative to plasma, brain levels, mice
[8] = CDI, mouse, brain (whole brain homogenate) relative to plasma, po, 20 mg/kg, Kp corrected with mouse plasma protein binding and mouse brain homogenates binding, 20 mpk PO, read-out: Kpu,u
[9] = phosphate buffered saline (PBS), 18 °C, kinetic from dmso stock

T1 sequence (Q96P20 whole entry): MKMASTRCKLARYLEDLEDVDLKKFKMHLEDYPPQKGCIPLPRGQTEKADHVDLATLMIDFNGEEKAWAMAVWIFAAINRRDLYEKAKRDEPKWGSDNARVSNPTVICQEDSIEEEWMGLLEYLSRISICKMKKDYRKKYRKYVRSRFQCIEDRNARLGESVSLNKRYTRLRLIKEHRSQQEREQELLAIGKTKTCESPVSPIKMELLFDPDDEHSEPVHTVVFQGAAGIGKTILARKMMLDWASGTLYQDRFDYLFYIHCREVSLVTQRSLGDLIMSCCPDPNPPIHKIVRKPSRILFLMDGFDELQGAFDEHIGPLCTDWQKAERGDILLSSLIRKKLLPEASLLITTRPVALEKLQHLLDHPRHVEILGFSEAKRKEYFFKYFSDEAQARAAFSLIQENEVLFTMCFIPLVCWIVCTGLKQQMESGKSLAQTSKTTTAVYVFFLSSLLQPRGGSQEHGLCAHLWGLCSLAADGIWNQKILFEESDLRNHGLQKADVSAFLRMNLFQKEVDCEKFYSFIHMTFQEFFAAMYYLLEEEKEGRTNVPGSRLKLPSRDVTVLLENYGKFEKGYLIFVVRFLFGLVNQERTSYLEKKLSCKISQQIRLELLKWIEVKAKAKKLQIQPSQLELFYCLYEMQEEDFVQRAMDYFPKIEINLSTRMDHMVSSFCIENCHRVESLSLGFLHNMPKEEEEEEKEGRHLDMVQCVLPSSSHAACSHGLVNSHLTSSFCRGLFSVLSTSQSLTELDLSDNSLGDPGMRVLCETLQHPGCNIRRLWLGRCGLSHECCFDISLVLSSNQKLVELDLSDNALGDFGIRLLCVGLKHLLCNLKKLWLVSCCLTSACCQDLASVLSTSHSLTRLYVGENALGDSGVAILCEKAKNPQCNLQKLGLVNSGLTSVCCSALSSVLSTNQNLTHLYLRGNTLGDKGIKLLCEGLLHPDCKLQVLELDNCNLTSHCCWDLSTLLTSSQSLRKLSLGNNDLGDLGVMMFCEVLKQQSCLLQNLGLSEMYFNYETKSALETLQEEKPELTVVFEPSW

Compound	IC50 [1]	half-life [2]	also measured
Oc1cc(Cl)ccc1-c1nnc(N[C@H]2C[C@@H]3CC[C@H]2O3)c2cnccc12 (single isomer, unassigned) [Compound 3B*]	5 µM		
Oc1cc(Cl)ccc1-c1nnc(N[C@H]2C[C@H]3CC[C@@H]2O3)c2cnccc12 (single isomer, unassigned) [Compound 3D*]	2.42 µM	0.167 h	
Cc1ccc(-c2nnc(N[C@H]3C[C@@H]4CC[C@H]3O4)c3cnccc23)c(O)c1 (single isomer, unassigned) [Compound 7B]	5.3 µM		
Cc1ccc(-c2nnc(N[C@H]3C[C@H]4CC[C@@H]3O4)c3cnccc23)c(O)c1 (single isomer, unassigned) [Compound 7D]	4.66 µM		
Oc1cc(Cl)ccc1-c1nnc(N[C@]23CCC(C2)OC3)c2cnccc12 (single isomer, unassigned) [Compound 9A]	> 50 µM		
Oc1cc(Cl)ccc1-c1nnc(N[C@@]23CCC(C2)OC3)c2cnccc12 (single isomer, unassigned) [Compound 9B]	> 50 µM		
Oc1cc(C(F)(F)F)ccc1-c1nnc(N[C@H]2C[C@@H]3CC[C@H]2O3)c2cnccc12 (single isomer, unassigned) [Compound 10B*]	6.76 µM		
Oc1cc(C(F)(F)F)ccc1-c1nnc(N[C@H]2C[C@H]3CC[C@@H]2O3)c2cnccc12 (single isomer, unassigned) [Compound 10D*]	5.34 µM	8 h	half-life [4]: > 8 h
Cc1ccc(-c2nnc(N[C@@H]3C[C@H]4CC[C@@H](C3)O4)c3cnccc23)c(O)c1 [Compound 2B*-r, 2-(4-(((1R,3s,5S)-8-oxabicyclo[3.2.1]octan-3-yl)amino)pyrido[3,4-d]pyridazin-1-yl)-5-methylphenol]	4.12 µM	3.67 h	
Cc1ccc(-c2nnc(N[C@H]3C[C@H]4CC[C@@H](C3)O4)c3cnccc23)c(O)c1F [Compound 12A*-r, 6-(4-(((1R,3r,5S)-8-oxabicyclo[3.2.1]octan-3-yl)amino)pyrido[3,4-d]pyridazin-1-yl)-2-fluoro-3-methylphenol]	2 µM	3.33 h	

These reach a lower IC50 [1]. Values come first.

IC50 [1]	half-life [2]	Compound	also measured
1.51 µM		6-(1-(((1R,5S,8s)-3-oxabicyclo[3.2.1]octan-8-yl)amino)pyrido[3,4-d]pyridazin-4-yl)-2-fluoro-3-methylphenol [Compound 15A-regioisomer]	
1.39 µM		Oc1cc(Cl)ccc1-c1nnc(N[C@H]2C[C@H]3CC[C@@H](C2)O3)c2cnccc12 [Compound 1A*-r, 2-(4-(((1R,3r,5S)-8-oxabicyclo[3.2.1]octan-3-yl)amino)pyrido[3,4-d]pyridazin-1-yl)-5-chlorophenol]	Kp [3, 7]: 0.047; Kp at 24 h [3, 6]: 0.047; Sol (PBS) ([5]; kinetic solubility, PBS pH 7.4, 2 hours at room temperature): 3.5 µM; solubility at 2 h [5, 9]: 3.5 µM (≈ 1.34 µg/mL)
0.81 µM	2.33 h	Oc1cc(C(F)(F)F)ccc1-c1nnc(N[C@@H]2C[C@H]3CC[C@@H]2O3)c2cnccc12 (single isomer, unassigned) [Compound 10C*]	Kp [3, 7]: 0.48; Kpu,u [3, 8]: 0.21; Kp at 24 h [3, 6]: 0.48; Kpu,u ([3]; brain levels, unbound, mice): 0.21; half-life [4]: 7.83 h
0.59 µM	4.67 h	Oc1cc(Cl)ccc1-c1nnc(N[C@H]2C[C@H]3C[C@@H]2CO3)c2cnccc12 (single isomer, unassigned) [Compound 8B]	Kp [3, 7]: 0.35; Kpu,u [3, 8]: 0.1; Kp at 24 h [3, 6]: 0.35; Kpu,u ([3]; brain levels, unbound, mice): — 0.10; solubility kinetic at 2 h ([5]; phosphate buffered saline (PBS), 18 °C, aqueous buffer, kinetic from dmso stock, kinetic solubility, PBS pH 7.4, 2 hours at room temperature): > 300 µM; solubility at 2 h [5, 9]: > 300 µM
0.48 µM		Cc1cc(O)c(-c2nnc(N[C@H]3[C@@H]4CC[C@H]3COC4)c3cnccc23)c(F)c1 [Compound 16A, 2-(4-(((1R,5S,8s)-3-oxabicyclo[3.2.1]octan-8-yl)amino)pyrido[3,4-d]pyridazin-1-yl)-3-fluoro-5-methylphenol]	
0.32 µM		N#Cc1ccc(-c2nnc(N[C@H]3[C@@H]4CC[C@H]3COC4)c3cnccc23)c(O)c1 [Compound 18A, 4-(4-(((1R,5S,8s)-3-oxabicyclo[3.2.1]octan-8-yl)amino)pyrido[3,4-d]pyridazin-1-yl)-3-hydroxybenzonitrile]	
0.31 µM		Cc1cc(C)c(-c2nnc(N[C@H]3[C@@H]4CC[C@H]3COC4)c3cnccc23)c(O)c1 [Compound 17A, 2-(4-(((1R,5S,8s)-3-oxabicyclo[3.2.1]octan-8-yl)amino)pyrido[3,4-d]pyridazin-1-yl)-3,5-dimethylphenol]	
0.27 µM	1.67 h	Oc1cc(Cl)ccc1-c1nnc(N[C@@H]2C[C@H]3CC[C@@H]2O3)c2cnccc12 (single isomer, unassigned) [Compound 3C*]	
0.27 µM	4.17 h	Oc1cc(Cl)ccc1-c1nnc(N[C@@H]2C[C@@H]3C[C@H]2CO3)c2cnccc12 (single isomer, unassigned) [Compound 8A]	
0.23 µM	0.95 h	Cc1ccc(-c2nnc(N[C@@H]3C[C@@H]4CC[C@H]3O4)c3cnccc23)c(O)c1 (single isomer, unassigned) [Compound 7A]	Kp at 24 h [3, 6]: 0.61; half-life [4]: > 8 h
0.11 µM	0.35 h	Cc1ccc(-c2nnc(N[C@@H]3C[C@H]4CC[C@@H]3O4)c3cnccc23)c(O)c1 (single isomer, unassigned) [Compound 7C]	Kp [3, 7]: 0.61; half-life [4]: 4.67 h
